Measured values from patent publication US20090298902A1, “PESTICIDE COMPOSITIONS FOR COMBATING ARTHROPOD PESTS, SNAILS AND NEMATODES” (priority 2006, published 2009).

System: workers of the eastern subterranean termite, Reticulitermes flavipes
Experiment: Test example 4: soil incorporation bioassay with compound P5a formulations
Assay type: in vivo
Conditions: 24 h, 1 DAT, read-out: Mean cumulative % mortality at days after treatment (DAT)
Description: Bioassays were conducted in 60×15 mm Petri dishes with a 1% agar layer for moisture and 15 termite workers per dish. Granular formulations were incorporated into the Princeton sandy loam soil by hand shaking and mixing with use of a commercial jar roller. After incorporation, water was added to field capacity, and the soil was rolled again. The soil was allowed to sit at field capacity overnight. The soil was then air dried for 24 hours prior to introduction into the test dishes. Conventional suspension concentrate of fipronil was used as a standard, and untreated soil used as a control. Test dishes were maintained at approximately 26° C. and 85% RH. Dishes were observed daily for 13 days for mortality. The concentration of active ingredient was 0.0004875% (w/w) in trench.
Test example 4 was performed similar to test example 1, using formulations containing compound P5a. Comparison of a superabsorber formulation of compound P5 to a DC formulation of compound P5 for bioactivity against workers of the eastern subterranean termite, Reticulitermes flavipes, via soil (Princeton sandy loam) incorporation;

Work on CCN/C(=N\Nc1c(Cl)cc(C(F)(F)F)cc1Cl)C1(C)CC1(Cl)Cl (centres unmarked) [Compound P5a] yielded a mortality at 10 ppm (Rate 10 ppm) of 100% and a mortality at 100 ppm (Rate 100 ppm) of 100%.
